This is an account of results in paper PMC5522181 (ACS chemical neuroscience, 2017).

Read-outs that look alike come from different tables or passages of the source.

For series [1] the following is noted: rhesus monkey, in vivo, sc.
Series [2] in a line: Plasma protein binding by equilibrium dialysis. On the technique in general: Equilibrium dialysis compares concentrations on both sides of a semipermeable membrane.
For series [3] the following is noted: CNO 10 mg/kg IM, monkeys; cited from earlier work.
The next series deals with T1, BCRP (MDCK-BCRP) (Homo sapiens, UniProt Q9UNQ0).
T1 sequence (Q9UNQ0 1-655): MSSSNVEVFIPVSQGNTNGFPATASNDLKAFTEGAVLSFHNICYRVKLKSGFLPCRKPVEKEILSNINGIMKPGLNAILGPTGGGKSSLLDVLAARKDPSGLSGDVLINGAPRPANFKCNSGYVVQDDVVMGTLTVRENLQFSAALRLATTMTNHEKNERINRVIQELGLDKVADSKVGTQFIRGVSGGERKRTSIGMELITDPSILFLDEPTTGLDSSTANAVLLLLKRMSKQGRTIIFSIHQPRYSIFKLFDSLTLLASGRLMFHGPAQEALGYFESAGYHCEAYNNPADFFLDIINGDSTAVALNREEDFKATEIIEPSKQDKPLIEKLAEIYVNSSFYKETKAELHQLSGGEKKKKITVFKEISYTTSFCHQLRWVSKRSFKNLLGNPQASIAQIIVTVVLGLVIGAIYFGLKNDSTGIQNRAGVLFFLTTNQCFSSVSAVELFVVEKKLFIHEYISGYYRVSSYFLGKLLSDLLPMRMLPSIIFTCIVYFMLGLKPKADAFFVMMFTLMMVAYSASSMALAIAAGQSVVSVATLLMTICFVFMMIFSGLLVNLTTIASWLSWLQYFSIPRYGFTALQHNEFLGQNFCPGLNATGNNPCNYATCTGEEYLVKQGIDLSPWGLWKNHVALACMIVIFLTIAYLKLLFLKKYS
In words: Bidirectional transport across BCRP-MDCK cell monolayers. It is filed as in vitro ADME. The note with it: MDCK-BCRP monolayer; CNO 5 μM; 120 min; no inhibitor.

The target in another series is human Pgp (MDCK-MDR1) (Homo sapiens, UniProt P08183). Briefly: Bidirectional transport across MDR1-MDCK cell monolayers. It is filed as in vitro ADME. The following applies: CNO 5 μM.
Chain of human Pgp (MDCK-MDR1) (P08183 whole entry): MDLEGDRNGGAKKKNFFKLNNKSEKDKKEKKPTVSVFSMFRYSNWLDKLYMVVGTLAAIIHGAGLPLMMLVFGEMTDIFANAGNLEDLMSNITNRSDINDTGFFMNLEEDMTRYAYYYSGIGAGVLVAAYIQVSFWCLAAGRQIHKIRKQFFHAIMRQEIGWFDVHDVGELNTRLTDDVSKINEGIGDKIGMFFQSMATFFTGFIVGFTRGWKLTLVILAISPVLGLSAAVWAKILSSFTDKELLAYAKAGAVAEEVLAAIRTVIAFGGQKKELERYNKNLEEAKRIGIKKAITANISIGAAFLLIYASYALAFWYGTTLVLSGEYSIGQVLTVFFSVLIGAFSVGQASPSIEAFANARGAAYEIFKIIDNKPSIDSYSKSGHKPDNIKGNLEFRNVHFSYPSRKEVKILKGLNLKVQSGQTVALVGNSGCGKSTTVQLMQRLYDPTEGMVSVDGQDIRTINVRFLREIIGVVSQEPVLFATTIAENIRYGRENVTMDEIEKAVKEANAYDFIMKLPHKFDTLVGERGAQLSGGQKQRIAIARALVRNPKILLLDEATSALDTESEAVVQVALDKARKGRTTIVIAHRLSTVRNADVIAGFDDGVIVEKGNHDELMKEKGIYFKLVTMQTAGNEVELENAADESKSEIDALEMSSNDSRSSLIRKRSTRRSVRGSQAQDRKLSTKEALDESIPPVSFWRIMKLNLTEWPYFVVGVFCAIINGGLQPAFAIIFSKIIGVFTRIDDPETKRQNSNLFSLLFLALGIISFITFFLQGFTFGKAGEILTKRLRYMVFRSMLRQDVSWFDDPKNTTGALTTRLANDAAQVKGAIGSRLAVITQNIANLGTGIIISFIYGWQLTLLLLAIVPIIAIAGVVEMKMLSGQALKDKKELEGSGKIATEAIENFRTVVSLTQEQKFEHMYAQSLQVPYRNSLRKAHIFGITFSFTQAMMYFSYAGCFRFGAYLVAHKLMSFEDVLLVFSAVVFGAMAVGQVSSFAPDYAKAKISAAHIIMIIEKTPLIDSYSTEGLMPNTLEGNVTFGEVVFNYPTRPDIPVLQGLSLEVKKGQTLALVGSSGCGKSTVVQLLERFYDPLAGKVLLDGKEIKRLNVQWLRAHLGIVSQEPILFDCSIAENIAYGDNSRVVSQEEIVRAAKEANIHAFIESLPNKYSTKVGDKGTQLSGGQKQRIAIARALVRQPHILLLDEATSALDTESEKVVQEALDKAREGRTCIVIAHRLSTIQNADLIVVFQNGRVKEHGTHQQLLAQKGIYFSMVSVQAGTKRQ
A short description of another series: Pharmacokinetics. The following applies: both, rhesus monkey, sc.
A short description of the next series: in vitro. The note with it: plasma, pH 7.4.
Setting [4] is: MDCK-Pgp monolayer, 120 min, no inhibitor.

What is called AUC is the area under the concentration-time curve, a measure of exposure. Lower therefore signals low exposure. The Cmax is the peak of the concentration-time curve. As for clozapine-N-oxide [CNO], in series [1], the “AUC at 3 mg/kg as share of AUC at 10 mg/kg” value is given as “approximately 65%”. This compound registered an AUC in series [1] (3 mg/kg) of 519 ng·h/mL. Besides, in series [1] (10 mg/kg), the AUC was 795 ng·h/mL, the Cmax was 7 µM and the Tmax was determined as 90 min ^b. Besides, the “fu (fraction unbound), PPB” value in series [2] (1 μM, 4 h at 37 °C, equilibrium dialysis) is given as 0.43. In series [3], the “Tmax in CSF” value is 1 h and the “average concentration in CSF” value is recorded as 9 ng/mL. In addition, on BCRP (MDCK-BCRP), the “A-B permeability (Papp)” value was determined as 0.07 ×10⁻⁶ cm/s and the “B-A permeability (Papp)” value amounted to 0.21 ×10⁻⁶ cm/s. In addition, at human Pgp (MDCK-MDR1) (setting [4]), the “A-B permeability (Papp)” value amounted to 0.05 ×10⁻⁶ cm/s and the “B-A permeability (Papp)” value was found to be 1 ×10⁻⁶ cm/s. Moreover, the Pgp substrate assessment entry at human Pgp (MDCK-MDR1) (MDCK-Pgp) is “substrate of Pgp”.
One may read the fraction unbound as free concentration divided by total concentration. Turning to `Clc1ccc2c(c1)N=C(N1CCNCC1)c1ccccc1N2` [N-desmethylclozapine], the Tmax in the series “Pharmacokinetics” (CSF, 3 mg/kg) was found to be 24 h; in the series “Pharmacokinetics” (CSF, 10 mg/kg), 24 h; in “Pharmacokinetics” (plasma, 3 mg/kg) it was 24 h. Besides, in “in vitro”, the unbound share (fraction unbound) at 4 h, 1 μM turned out to be 0.11.
For `CN1CCN(C2=Nc3cc(Cl)ccc3Nc3ccccc32)CC1` [clozapine], the Tmax in “Pharmacokinetics” (CSF, 3 mg/kg) is 2.67 h; in the series “Pharmacokinetics” (CSF, 10 mg/kg) it was 2.67 h; in the series “Pharmacokinetics” (plasma, 3 mg/kg) it was 2.67 h. In series [2] (pH 7.4), the fraction unbound at 4 h, 1 μM is 0.05.
